Patent US9962402B2, “Healing composition for topical application” (BIOPASS S.A., priority 2011, dated 2018)
“Also recorded” adds a separate entry of the source.

Tested on: wound healing
Assay: Effect on wound healing (discovered in the context of the invention, no method given)
Format: in vivo
Conditions: present in a gel

SMILES: CCOCCOCCO [ethoxydiglycol]
- effect on wound healing: significantly slows wound healing; also recorded: significantly delays wound healing
